Where “and” joins values, the source holds several entries; their conditions need not be identical. Identical values can stand only once.
System: 186277-243-T-J2-PDC complex spheroid growth
Assay: Anticancer human tumor 186277-243-T-J2-PDC patient-derived colon adenocarcinoma cell line growth inhibition [AhR]
Conditions: for viability, T/C: stronger effect = lower value
In short: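 Complex tumor spheroids co-cultured with HUVEC and human MSC stroma; AhR antagonists tested in combination with standard-of-care and investigational agents. Top concentration at or near clinical Cmax (else 10 microM), half-log dilutions; growth expressed as percent test/control.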

[1] = curve of first compound, second compound 0.1 µM
[2] = curve of first compound, second compound 0.316 µM
[3] = curve of first compound, second compound 1 µM
[4] = curve of first compound, second compound 3.16 µM
[5] = curve of first compound, second compound 10 µM
[6] = second compound 0.1 µM, first compound 0.0316 µM
[7] = second compound 0.1 µM, first compound 0.1 µM
[8] = second compound 0.1 µM, first compound 0.316 µM
[9] = second compound 0.1 µM, first compound 1 µM
[10] = second compound 0.1 µM, first compound 3.16 µM
[11] = second compound 0.1 µM, first compound 10 µM
[12] = second compound 0.316 µM, first compound 0.0316 µM
[13] = second compound 0.316 µM, first compound 0.1 µM
[14] = second compound 0.316 µM, first compound 0.316 µM
[15] = second compound 0.316 µM, first compound 1 µM
[16] = second compound 0.316 µM, first compound 3.16 µM
[17] = second compound 0.316 µM, first compound 10 µM
[18] = second compound 1 µM, first compound 0.0316 µM
[19] = second compound 1 µM, first compound 0.1 µM
[20] = second compound 1 µM, first compound 0.316 µM
[21] = second compound 1 µM, first compound 1 µM
[22] = second compound 1 µM, first compound 3.16 µM
[23] = second compound 1 µM, first compound 10 µM
[24] = second compound 3.16 µM, first compound 0.0316 µM
[25] = second compound 3.16 µM, first compound 0.1 µM
[26] = second compound 3.16 µM, first compound 0.316 µM
[27] = second compound 3.16 µM, first compound 1 µM
[28] = second compound 3.16 µM, first compound 3.16 µM
[29] = second compound 3.16 µM, first compound 10 µM
[30] = second compound 10 µM, first compound 0.0316 µM
[31] = second compound 10 µM, first compound 0.1 µM
[32] = second compound 10 µM, first compound 0.316 µM
[33] = second compound 10 µM, first compound 1 µM
[34] = second compound 10 µM, first compound 3.16 µM
[35] = second compound 10 µM, first compound 10 µM
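Further: spheroids exposed to compounds for seven days before the viability read.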
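Wherever viability, T/C is given: luminescent signal used as a stand-in for viable cell amount; 100% = DMSO vehicle control wells.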

COc1ccc([C@@H](O)c2cc(-c3ncnc4cc(N5CCOCC5)ccc34)c(F)cc2Cl)nn1
viability, T/C (compound 0.0316 µM): 103% and 94.6% and 86.8% | viability, T/C (compound 0.1 µM): 101% and 91.5% and 90.4% | viability, T/C (compound 0.316 µM): 115% and 102% and 95% | viability, T/C (compound 1 µM): 107% and 95.6% and 69.3% | viability, T/C (compound 3.16 µM): 108% and 87.9% and 46.4% | viability, T/C (compound 10 µM): 45.4% and 44.9% and 16.3% | IC50 (curve of compound): 9190 nM and 8760 nM and 2560 nM

CC1COCCN1c1cc(C2(S(C)(=N)=O)CC2)nc(-c2ccnc3[nH]ccc23)n1 (configuration not stated) + Cc1ccccc1N=Nc1ccc(NC(=O)c2ccnn2C)c(C)c1
IC50 [1]: 2340 nM | IC50 [2]: 2350 nM | IC50 [3]: 2180 nM | IC50 [4]: 2200 nM | IC50 [5]: 2170 nM | viability, T/C [6]: 105% | viability, T/C [7]: 97.8% | viability, T/C [8]: 81.3% | viability, T/C [9]: 90.8% | viability, T/C [10]: 35.8% | viability, T/C [11]: 11.8% | viability, T/C [12]: 99.1% | viability, T/C [13]: 90.2% | viability, T/C [14]: 98.5% | viability, T/C [15]: 97% | viability, T/C [16]: 33.9% | viability, T/C [17]: 11.3% | viability, T/C [18]: 89.4% | viability, T/C [19]: 105% | viability, T/C [20]: 81.8% | viability, T/C [21]: 84.2% | viability, T/C [22]: 34% | viability, T/C [23]: 9.66% | viability, T/C [24]: 91.2% | viability, T/C [25]: 83.8% | viability, T/C [26]: 87.6% | viability, T/C [27]: 95.1% | viability, T/C [28]: 31.8% | viability, T/C [29]: 9.83% | viability, T/C [30]: 82.1% | viability, T/C [31]: 87.2% | viability, T/C [32]: 87.5% | viability, T/C [33]: 79.7% | viability, T/C [34]: 35.6% | viability, T/C [35]: 10.9%

COc1ccc([C@@H](O)c2cc(-c3ncnc4cc(N5CCOCC5)ccc34)c(F)cc2Cl)nn1 + Cc1ccccc1N=Nc1ccc(NC(=O)c2ccnn2C)c(C)c1
IC50 [1]: > 10000 nM | IC50 [2]: > 10000 nM | IC50 [3]: > 10000 nM | IC50 [4]: > 10000 nM | IC50 [5]: 9260 nM | viability, T/C [6]: 100% | viability, T/C [7]: 98% | viability, T/C [8]: 92.9% | viability, T/C [9]: 80.2% | viability, T/C [10]: 89.6% | viability, T/C [11]: 55.8% | viability, T/C [12]: 96.5% | viability, T/C [13]: 104% | viability, T/C [14]: 93.6% | viability, T/C [15]: 80% | viability, T/C [16]: 86.4% | viability, T/C [17]: 52.2% | viability, T/C [18]: 96.5% | viability, T/C [19]: 101% | viability, T/C [20]: 101% | viability, T/C [21]: 98% | viability, T/C [22]: 104% | viability, T/C [23]: 62.7% | viability, T/C [24]: 97.1% | viability, T/C [25]: 89.4% | viability, T/C [26]: 89.7% | viability, T/C [27]: 79.8% | viability, T/C [28]: 76.2% | viability, T/C [29]: 54.2% | viability, T/C [30]: 76.3% | viability, T/C [31]: 81.9% | viability, T/C [32]: 91% | viability, T/C [33]: 80.5% | viability, T/C [34]: 90.9% | viability, T/C [35]: 47.5%

— PubChem BioAssay AID1918991 (Molecular Pharmacology Branch, DTP, NCI, 2023)
